Results reported in patent publication US20030228263A1, “Propagermanium for treating myeloma bone disease and other bone disorders” (SurroMed, Inc., priority 2002, published 2003).

B1: MIP-1α: CC chemokine macrophage inflammatory protein-1α, used as osteoclast stimulus (protein, UniProt P10147 24-92, looked up)
C-C motif chemokine 3: SLAADTPTACCFSYTSRQIPQNFIADYFETSSQCSKPGVIFLTKRSRQVCADPSEEWVQKYVSDLELSA

Key:
[1] = test system: mouse bone marrow cells stimulated with MIP-1α; assay: Formation of mouse osteoclasts (TRAP staining) in bone marrow cultures; format: cell-based; details: 1 μg/ml propagermanium, two different concentrations of MIP-1α, with 10^−11 M vitamin D, FIG. 2
Procedure: Bone marrow cells (10^6 cells/culture) from C57B1 mice were isolated and cultured for osteoclast-like multinucleated cell formation in the presence or absence of 1, 10, or 100 ng/ml MIP-1α, 10^−11 M 1,25-(OH)2D3 (vitamin D), and varying concentrations of anti-human MIP-1α antibody (20 or 100 ng/ml), anti-CCR1 receptor antibody (20 or 100 ng/ml), anti-CCR5 receptor antibody (20 or 100 ng/ml), and 1 μg/ml propagermanium. Twelve different culture compositions were each prepared in four wells of a 48-well plate. After approximately six or seven days, the cultures were stained for the enzyme tartrate-resistant acid phosphatase (TRAP), an enzyme secreted into the circulation by osteoclasts during bone resorption, using an acid phosphatase staining kit (Sigma). TRAP-positive multinucleated cells containing three or more nuclei (assumed to be osteoclasts) were counted with an inverted microscope. The readout can be either the total amount of TRAP (TRAP activity) or the number of osteoclasts.

[2] = test system: human bone marrow cells stimulated with MIP-1α; assay: Formation of human osteoclasts (23c6-positive multinucleated cells) in long-term marrow cultures; format: cell-based; details: for increase in the number of osteoclasts formed over untreated marrow: 200 pg/ml MIP-1α or 10^−8 M 1,25-(OH)2D3 alone, 23c6-positive cells, about three weeks, FIG. 3
Procedure: Human long-term marrow cultures were performed as described in D. E. Hughes et al., “Estrogen promotes apoptosis of murine osteoclasts mediated by TGF-β,” Nature Medicine 2: 1132-1136, 1996, which is incorporated herein by reference. Briefly, human bone marrow nonadherent mononuclear cells from normal volunteers were cultured at 10^6 cells/ml in α-minimum essential medium and 20% horse serum with or without 10^−8 M 1,25-(OH)2D3 (vitamin D), 200 pg/ml MIP-1α, 20 ng/ml anti-human MIP-1α antibody, and varying concentrations of propagermanium. Five wells of each of ten different culture conditions were prepared in a 96-well plate. Each well contained 10^5 cells and the desired combination of reagents. Half of the culture medium was changed weekly. After approximately three weeks, the cultures were harvested and stained with the 23c6 monoclonal antibody, which identifies the osteoclast vitronectin receptor, and the 23c6-positive multinucleated cells counted. The 23c6 assay is more specific than the TRAP assay (used in Example 1 for mouse osteoclasts) for human osteoclasts.
Results are shown in FIG. 3, a plot of fold increase in osteoclasts over the number of osteoclasts formed in untreated marrow for each set of wells. Well conditions are indicated below the bars. Results are reported as the mean±S.E. for five replicate samples and were compared by Student's t test.

monocytes = details: cited from earlier work
macrophages = details: mouse, in vivo; cited from earlier work

Molecule | reduction of the number of osteoclasts formed [1] | number of osteoclasts formed in response to MIP-1α stimulation ([2]; 200 pg/ml MIP-1α, varying concentrations of propagermanium) | effect on osteoclast formation in response to vitamin D stimulation ([2]; 10^−8 M 1,25-(OH)2D3, varying concentrations of propagermanium) | inhibition of the effect of MIP-1α on osteoclast formation ([2]; highest dose of propagermanium, compared with 20 ng/ml anti-human MIP-1α antibody) | chemotactic response of monocytes to the CC chemokine MCP-1 (monocytes) | direct interaction with the chemokine receptor CCR2 (monocytes) | recruitment of macrophages into the liver (macrophages) | increase in the number of osteoclasts formed over untreated marrow [2]
3-oxygermylpropionic acid polymer [Propagermanium] | greater than a factor of four | dose-dependent reduction | no effect | comparable to that of the anti-human MIP-1α antibody | inhibit | did not appear to interact directly | suppress | 
C=C1/C(=C\C=C2/CCC[C@]3(C)[C@@H]([C@H](C)CCCC(C)(C)O)CC[C@@H]23)C[C@@H](O)C[C@@H]1O [vitamin D, 1,25-(OH)2D3] |  |  |  |  |  |  |  | greater than two-fold increase
B1 |  |  |  |  |  |  |  | greater than two-fold increase
